Assay results: patent publication US10845369B2, “Sampling devices and methods of use” (3M INNOVATIVE PROPERTIES COMPANY, priority 2008, dated 2020)
Values belong to the molecule of their own block, whether it stands above or below them.

What was measured:
luciferase enzyme = experiment: ATP detection activity test in CLEAN-TRACE devices (compatibility with luciferase enzyme); assay type: biochemical
From the text: The swabs were removed from the CLEAN-TRACE devices and replaced with dry, sterile Dacron swabs. One-third of the replacement swabs were dipped in solution I (see Table 1) for 20 seconds, tapped on the edge of a sterilin container 5 times (to remove excess swabbing solution), and the CLEAN-TRACE tube was reassembled with the moistened swab. One-third of the remaining replacement swabs were similarly moistened with solution II (Table 1) containing 2% (w/v) 1,2-propanediol and reassembled in the tubes. The remaining one-third were similarly moistened with solution II (Table 1) containing 5% (w/v) 1,2-propanediol and reassembled in the tubes. The reassembled devices were sealed in pouches containing 10 devices per pouch and stored at 4 degrees Celsius for 24 hours.
An ATP stock solution was prepared by reconstituting freeze-dried ATP with 500 microliters of autoclaved R.O. water to a working strength of […]. A 10-microliter aliquot of the ATP working solution was pipetted onto the middle of the bud of the test devices prepared for this Example (see above).
Individual devices were activated by plunging the handle of the swab into the test devices, thereby breaking the barrier and exposing the swab bud to the reagent solution containing luciferin. The tubes were then shaken for 20 seconds at speed 7 on the wrist action shaker (Stuart Scientific, Staffordshire, England) and the device was read device in a UNI-LITE luminometer (3M Healthcare, Bridgend, U.K.). Twenty replicate swabs were tested at each time point for each swab solution. Background readings (negative controls) were run at each time point by activating devices, containing one of the Solutions (I, IIa, or IIb), which was not spiked with the ATP solution. Ten devices were used for each negative control condition at each time point.
(§1) Swabs were prepared as described in Example 1. The swabs were tested for moisture retention as described in Example 1, for compatibility with luciferase enzyme as described in Example 3, and for perdurable detectable residue as described in Example 4. In these experiments, the swab effectiveness parameter was not recorded. All concentrations are listed as percent weight/volume. Solution I-moistened swabs were used as controls for all comparisons. Inhibition of luciferase activity was scored as significant when the measurement from the test swab was <90% of the activity observed with the control swabs. The inhibition was scored as very significant when the measurement from the test swab was <50% of the activity observed with the control swabs.

[1] = Moisture retention by premoistened swab devices during extended storage; assay type: physicochemical
From the text: Rapid Cleanliness Test swab sampling devices, sold under the trade name CLEAN-TRACE, were obtained from 3M Health Care (Bridgend, UK). Sterile Dacron swabs were obtained from Puritan Medical Products Company (Guilford, Me.). Foil pouches (160 mm (w)×270 mm (1) heat-sealable PET/foil/LDPE laminate pouches) were obtained from Westfield Medical Ltd. (Bath, UK). The analytical balance (model GR-300) was obtained from A&D Mercury Pty., (Thebarton, South Australia)
The swabs were removed from the CLEAN-TRACE devices and replaced with dry, sterile Dacron swabs. Half of the replacement swabs were dipped in solution I (see Table 1) for 20 seconds, tapped on the edge of a sterilin container 5 times (to remove excess swabbing solution), and the swabs were weighed before each CLEAN-TRACE tube was reassembled with a moistened swab. The remaining replacement swabs were similarly moistened with solution II (Table 1), weighed, and reassembled in the tubes.
The initial weight (T0) of each moistened swab was recorded. The reassembled tubes were placed into individual plastic pouches, which were heat-sealed. Care was taken to minimize the amount of air sealed in each pouch. The pouches were divided into two groups. One group was placed into a refrigerator which was held at a temperature of 4±3 degrees Celsius. The other group was placed into a chamber which was held at 25±1 degree Celsius. Sets of ten replicate tubes were removed from each chamber at each specified time point, the tubes were removed from the pouch and weighed, and the weights were recorded.
as §1

[2] = 5% w/v, vs Solution I control swabs
[3] = 5% w/v in Solution II, vs Solution I control
[4] = 1% w/v in Solution II, vs Solution I control

SMILES: OCC(O)CO [Glycerol]
Compatibility with luciferase enzyme (luciferase enzyme; up to 5% (1, 5% tested)): No inhibition up to 5%
Moisture retention ([1]; 1, 5% tested): Comparable to sorbitol and propylene glycol
Moisture retention ([1]; 10, 20, 50% tested): Comparable to sorbitol and propylene glycol

SMILES: CC(O)CO (centres unmarked) [Propylene glycol (1,2-propanediol), 1,2-propanediol]
Compatibility with luciferase enzyme (luciferase enzyme; 1, 2, 3, 4% tested): No inhibition
Compatibility with luciferase enzyme (luciferase enzyme; 5, 6, 8% tested): No inhibition
Moisture retention [1, 4]: No significant improvement
Moisture retention ([1]; ≥5% (5, 6, 8% tested)): Significant improvement ≥5%
Moisture retention ([1]; ≥5% (10. 20, 25, 50% tested)): Significant improvement ≥5%

SMILES: CC(O)C(=O)[O-].[Na+] (centres unmarked) [Sodium lactate]
Compatibility with luciferase enzyme (luciferase enzyme; [2]): Significant inhibition
Moisture retention ([1]; 5 or 10% soln.): No significant improvement with 5 or 10%

Second part, the molecule after the results:

Compatibility with luciferase enzyme (luciferase enzyme; [2]): Some inhibition at 5%
Moisture retention [1, 3]: 5% solution was comparable to PG
SMILES: CC(=O)NCCO [Incromectant (N-Acetylethanolamine), N-Acetylethanolamine]

Compatibility with luciferase enzyme (luciferase enzyme; 1% w/v, vs Solution I control swabs): No inhibition
Compatibility with luciferase enzyme (luciferase enzyme; [2]): No inhibition
Moisture retention [1, 4]: No significant improvement with 1%.
Moisture retention [1, 3]: Slight improvement with 5%.
Moisture retention ([1]; ≥10% (10, 20, 30, 40, 50, 100% tested)): Significant improvement with ≥10%
SMILES: OC[C@@H](O)[C@@H](O)[C@H](O)[C@@H](O)CO [Sorbitol]
